# Reference: patent publication US20200038474A1, “COMPOSITION, USE AND METHOD FOR TREATING NEURODEGENERATIVE DISEASES” (FUNDAÇÃO BUTANTAN, priority 2016, published 2020)
# Experiments:
# κ opioid receptor = conditions: literature report; cited from earlier work
# [1] = tested on: Experimental Autoimmune Encephalomyelitis; assay: Experimental Autoimmune Encephalomyelitis (EAE) induced by MOG35-55, clinical signs scored 0 to 5; type: in vivo, female C57BL/6 mice
sequence,measurement,setting,value
EFSPENCQGESQPC [Crotalphine],antinociception,κ opioid receptor,induces antinociception mediated by κ opioid receptor activation
same,animals that reached clinical score 2,"[1]; single dose of 50 μg/kg on the 5th day after immunization, 100% of saline controls reached a score between 3 and 5",43%
same,severity of clinical signs,"[1]; single dose of 50 μg/kg on the 5th day after immunization, vs saline control, n=8, p<0.05",significantly decreased the severity of clinical signs
same,motor impairment in animal model of multiple sclerosis,[1]; summary statement,partially reverse the motor impairment
